Patent publication US9914712B2, “Antibacterial thiazolecarboxylic acids” (priority 2013, dated 2018)
pKi: −log10 of the molar value.

How the values were obtained:
[1] = target: T1, VIM-2 (Escherichia coli, UniProt Q5U7L7); experiment: In vitro MBL inhibition assay, imipenem hydrolysis (VIM-2); format: biochemical; details: Ki VIM-2, imipenem substrate, Ki from IC50 by Cheng-Prusoff, Km 9 μM
T1 construct: made in house
Procedure: The MBL enzyme VIM-2 is produced and purified as disclosed in Borgianni et al, Antimicrobial Agents & Chemotherapy, (2010), 54(8), 3197-3204.
(§1) Reaction buffers were prepared in a UV-transparent 96-well microplate, which buffer contains 10 mM HEPES pH 7.5, 50 μM ZnSO4, 20 μg/mL BSA. An amount of 75 ng of protein was added to each well.
(§2) Spectrophometric assays are performed to determine NDM-1/VIM-2/IMP-1 carbapenemase activity using purified proteins (50 ng for NDM-1/VIM-2, 25 ng IMP-1) from NDM-1/VIM-2/IMP-1 expressing bacteria using […] of imipenem as substrate in 10 mM HEPES pH 7.5, 50 μM ZnSO4. MBL hydrolysis is measured at 299 nm for 10 minutes at 30° C. as the absorbance changes due to the opening of beta-lactam ring of the antibiotic.
(§3) The Ki values obtained for selected example compounds are shown in Table 3, where they are compared with the values for pyridine-2-carboxylic acid.

[2] = target: T2, IMP-1 (Serratia marcescens, UniProt P52699); experiment: In vitro MBL inhibition assay, imipenem hydrolysis (IMP-1); format: biochemical; details: Ki IMP-1, imipenem substrate, Ki from IC50 by Cheng-Prusoff, Km 25 μM
T2 construct: made in house
Procedure: The MBL enzyme IMP-1 is produced and purified as disclosed in Laraki et al, Antimicrobial Agents & Chemotherapy, (1999), 43(4), 902-906.
as §1, §2, §3

[3] = tested on: NTBC039; experiment: MIC of meropenem in presence of the inhibitor, broth microdilution; format: cell-based; details: compound at 100 μM, 37° C., 18-20 h
[4] = tested on: NTBC023 strain: Klebsiella pneumoniae producing VIM-1+SHV-5; experiment: as above; format: cell-based; details: compound at 100 μM, 37° C., 18-20 h
Procedure: (§4) The minimal inhibitory concentration (MIC) of meropenem in presence of the inhibitor is routinely assessed against 3 representative clinical strains: • NTBC020 Strain: Escherichia coli producing NDM-1+TEM-1+CTX-M-15, (isolated in Australia in 2009); • NTBC023 strain: Klebsiella pneumoniae producing VIM-1+SHV-5, (isolated in France in 2002); • NTBC062 strain: Klebsiella pneumoniae producing IMP-1+TEM-1, (isolated in France in 2012);
(§5) The assay was performed according to the standard broth microdilution method described by the Clinical and Laboratory Standards Institute (CLSI-M7-A7—Methods for dilution antimicrobial susceptibility tests for bacteria that grow aerobically; Approved standard; CLSI, Wayne, Pa., USA. 2006). This method involves the use of small volumes of broth dispensed in sterile, plastic 96-wells microdilution plates. The compounds were tested at a concentration of 100 μM and controls included the susceptibility tests for the three selected strains without the compounds and for the two reference strains E. coli ATCC 25922 and Pseudomonas aeruginosa ATCC 27853 as Quality Controls.
(§6) From a stock solution at 20 mM in DMSO, compounds were prepared by diluting 0.04 mL of the compound solution in 0.04 mL of Mueller-Hinton (MH) broth (2-fold dilution). Then, 0.001 mL of the compound dilution was distributed in the 96-wells microdilution plates to give a final concentration of 100 μM for a final volume of 0.1 mL by well.
(§7) From a meropenem stock solution at 10 mg/ml in water, meropenem 2-fold serial dilutions were prepared in MH broth at twice the desired final concentrations, e.g from 512 to 0.0037 μg/ml. The 96-wells microdilution plates were then filled with 0.05 mL of the meropenem dilutions. For each susceptibility test, two wells were left free of antibiotic and filled with 0.05 mL of sterile MH broth to serve as growth controls.
(§8) The bacterial inoculum was prepared by direct colony suspension from a 24 h-agar plate in saline solution (NaCl 9 g/L). The suspension was adjusted to a 0.5 MacFarland turbidity standard (1-2×10^8 CFU/mL) and then diluted 1:100 in MH broth. 0.05 mL of the bacterial dilution was then inoculated to each well giving a final volume of 0.1 mL and a final bacterial concentration of approximately 5×10^5 CFU/mL.
(§9) Microdilution plates were incubated at 37° C. in an ambient air incubator for 18-20 h.

[5] = tested on: NTBC020 Strain: Escherichia coli producing NDM-1+TEM-1+CTX-M-15; experiment: as above; format: cell-based; details: compound at 100 μM, 37° C., 18-20 h
Procedure: as §4, §5, §6, §7, §8, §9

[6] = target: T3, NDM-1 (Klebsiella pneumoniae, UniProt C7C422); experiment: In vitro MBL inhibition assay, imipenem hydrolysis (NDM-1); format: biochemical; details: Ki NDM-1, imipenem substrate, Ki from IC50 by Cheng-Prusoff, Km 70 μM
T3 construct: made in house
Procedure: NDM-1 is produced and purified as disclosed in Yong et al, Antimicrobial Agents & Chemotherapy, (2009) 53(12), 5046-54.
as §1, §2, §3

T2 sequence (P52699 19-246, species assumed): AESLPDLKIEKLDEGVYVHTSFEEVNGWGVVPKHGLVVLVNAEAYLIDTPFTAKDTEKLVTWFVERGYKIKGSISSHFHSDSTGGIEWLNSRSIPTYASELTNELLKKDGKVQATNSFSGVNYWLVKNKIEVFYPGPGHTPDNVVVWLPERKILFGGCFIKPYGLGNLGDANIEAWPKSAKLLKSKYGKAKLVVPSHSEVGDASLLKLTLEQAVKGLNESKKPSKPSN
T3 sequence (C7C422 29-270 limits assumed): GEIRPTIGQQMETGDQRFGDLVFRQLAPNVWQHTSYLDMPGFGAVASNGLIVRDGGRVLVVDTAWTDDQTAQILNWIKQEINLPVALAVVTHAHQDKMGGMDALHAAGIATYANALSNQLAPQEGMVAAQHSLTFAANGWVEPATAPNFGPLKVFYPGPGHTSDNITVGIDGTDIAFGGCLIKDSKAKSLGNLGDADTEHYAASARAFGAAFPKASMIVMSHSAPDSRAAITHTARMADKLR

Structure (SMILES) | pKi [1] | pKi [2] | MIC of meropenem, strain NTBC039 [3] | MIC of meropenem, strain NTBC023 [4] | MIC of meropenem, strain NTBC020 [5] | pKi [6]
O=C(O)c1ncsc1NS(=O)(=O)c1ccccc1 [Compound 1, 5-benzenesulfonamido-1,3-thiazole-4-carboxylic acid] | 6.49 | 7.10 | 16 µg/mL | 64 µg/mL | 32 µg/mL | 5.92
O=C(O)c1ncsc1NS(=O)(=O)c1csc2ccccc12 [Compound 41, 5-(1-benzothiophene-3-sulfonamido)-1,3-thiazole-4-carboxylic acid] | 6.66 | 7.10 | 4 µg/mL | 16 µg/mL | 64 µg/mL | 6.17
O=C(O)c1ncsc1NS(=O)(=O)CC1CCOCC1 [Compound 111, 5-[(oxan-4-ylmethyl)sulfonamido]-1,3-thiazole-4-carboxylic acid] | 6.66 | 6.05 | 0.25 µg/mL | 8 µg/mL | 4 µg/mL | 5.55
O=C(O)c1ncsc1NS(=O)(=O)c1ccc(N2CCCCC2)nc1 [Compound 138, 5-[6-(piperidin-1-yl)pyridin-3-ylsulfonamido]-1,3-thiazole-4-carboxylic acid] | 8.00 | 6.89 | 1 µg/mL | 16 µg/mL | 32 µg/mL | 6.37
O=C(O)c1ncsc1NS(=O)(=O)c1ccc(OC2CCNC2)cc1 (centres unmarked) [Compound 163, 5-[4-(pyrrolidin-3-yloxy)phenylsulfonamido]-1,3-thiazole-4-carboxylic acid] | 6.55 | 6.00 | 16 µg/mL | 32 µg/mL | 16 µg/mL | 6.43
O=C(O)c1ncsc1NS(=O)(=O)Cc1cccnc1 [Compound 170, 5-(3-pyridylmethylsulfonylamino)thiazole-4-carboxylic acid] | 6.34 | – | 0.25 µg/mL | 1 µg/mL | 16 µg/mL | 5.38
N[C@@H](C(=O)N1CCC(c2ccc(S(=O)(=O)Nc3scnc3C(=O)O)cc2)CC1)c1ccccc1 [Compound 172, S-5-[[4-[1-(2-amino-2-phenyl-acetyl)-4-piperidyl]phenyl]sulfonylamino]thiazole-4-carboxylic acid] | 7.30 | 6.12 | 8 µg/mL | 8 µg/mL | 64 µg/mL | 6.66
N[C@@H](C(=O)N1CCC(c2ccc(S(=O)(=O)Nc3scnc3C(=O)O)cc2)CC1)c1ccccc1 [Compound 173, R-5-[[4-[1-(2-amino-2-phenyl-acetyl)-4-piperidyl]phenyl]sulfonylamino]thiazole-4-carboxylic acid] | 7.40 | 6.48 | 8 µg/mL | 8 µg/mL | 128 µg/mL | 6.74
